Measurements reported in publication PMC7529580, “Modified heptapeptide from tau binds both tubulin and microtubules” (Thoracic Cancer, 2020).
“Also recorded” adds a separate entry of the source. Like-named read-outs stand apart in the source and are kept apart here. Non-standard residues stand in square brackets, D forms with d. No end group written: not given here. *: point of attachment. FITC = O=C1OC2(c3ccc(O)cc3Oc3cc(O)ccc32)c2ccc(NC(=S)*)cc21; Ahx = NCCCCCC(=O)O

Tests used:
[1] = tested on: microtubules; design: method as in 2 sources, ref 26 = [26]; PMID 9190213; doi:10.1091/mbc.8.2.353; 26 Goode BL , Denis PE , Panda D et al Functional interactions between the proline‐rich and repeat regions of tau enhance microtubule binding and assembly . Mol Biol Cell 1997; 8 : 353 – 65 . 9190213 ||| ref 27 = [27]; PMID 19186939; doi:10.1021/bm801224q; 27 Cao B , Mao C . Identification of microtubule‐binding domains on microtubule‐associated proteins by major coat phage display technique . Biomacromolecules 2009; 10 : 555 – 64 . 19186939 10.1021/bm; conditions: cited from earlier work
[2] = tested on: microtubules in living cells; conditions: cited from earlier work; for labeling of microtubules in living cells (in words): microtubule‐targeting agents
Source text: The property of microtubules is regulated by a number of microtubule‐binding proteins, ^8 , ^9 , ^10 , ^11 , ^12 , ^13 of which tau is well‐characterized because of its abundance, particularly in brain tissues. ^14 , ^15 , ^16 The N‐terminus of tau is a projection domain, followed by a proline‐rich region and a C‐terminal microtubule‐assembly domain. ^17 The microtubule‐assembly domain, which contains four imperfect sequence repeats, is responsible for the binding of tau to microtubules. […] In this study, we tested another tau‐derived peptide for its ability to monitor microtubules.

[3] = tested on: tubulin dimers; experiment: Microscale thermophoresis affinity determination; format: binding; conditions: 1 μM peptide, series dilution of tubulin
Protocol: All microscale thermophoresis measurements were performed using Monolith NTTM hydrophobic capillaries and a Monolith NT.115 instrument (NanoTemper) according to the manufacturer's instructions. The peptide was prepared with varying concentrations for pretest to ensure final proper concentration. The fluorescence intensity value should be more than 200. A series of dilution of the tubulin dimers was then added into the capillaries. The affinity of the peptide to tubulin dimers was examined using the Monolith NT.115 instrument.
(§1) Tubulin from HeLa cells was purified using a TOG‐based affinity column. ^20 Briefly, cells were resuspended in an equal volume of BRB80 buffer containing 3 μL of benzonase and 1 mM DTT. Cells were lysed on ice and centrifuged at 40 000 rpm for 30 minutes at 4°C. The supernatant was filtered through a 0.45 μm Milliex‐HV polyvinylidene fluoride membrane, and then loaded into a TOG column preequilibrated with BRB80 buffer. The tubulin was eluted with BRB80 buffer, and the crude extract was further purified through the cycle of polymerization and depolymerization as previously described. ^22
Figure 2 Affinity determination of the peptide to tubulin. 1 μM of the peptide and a series dilution of tubulin were added into the capillary tube, and the fluorescence intensity was then determined by a Monolith NT.115 instrument.

[4] = tested on: polymerized microtubules; experiment: Labeling of polymerized microtubules in solution (fluorescence microscopy); format: binding; conditions: 1 μM peptide added to polymerized rhodamine‐labeled microtubules, five minutes incubation, fluorescence microscope
Protocol: as §1
Rhodamine‐labeled tubulin (5%) was mixed into tubulin purified from HeLa cells in the PEMG buffer (100 mM PIPES, 1 mM EGTA, 1 mM MgSO4, 1 mM GTP, pH 6.8). Next, the mixture was placed on ice for five minutes and then incubated at 37°C for 30 minutes. The polymerized reaction was terminated by adding 400 μL of PEMG buffer. […] The pellet was resuspended with 300 μL of the PEMG buffer supplemented with 20 μM paclitaxel and then added into a slide chamber for imaging under a fluorescence microscope.
Figure 3 The peptide was able to label the microtubules in solution. (a) The tubulin was purified from HeLa cells through cycle process, and the purity was determined by SDS‐PAGE. […] After five minutes incubation, the microtubule was imaged under a fluorescence microscope. […]

[5] = tested on: HeLa cells; experiment: Living cell assay: entry of peptide into cells; format: cell-based; conditions: 15 μM peptide, 30 minutes, Hoechst 33258, fluorescence microscope
Protocol: (§2) HeLa cells were cultured in Dulbecco's modified Eagle's medium supplemented with 10% fetal bovine serum and maintained at 37°C in a humidified 5% CO2 environment. The peptide was added into the Hela cells, and incubated for 30 minutes. The nuclei were stained with Hoechst 33258 (Beyotime). Cells were imaged with a fluorescence microscope (Leica, Germany).  Figure 4 Examination of the peptide in tracing microtubules in living cells. HeLa cells were treated with 15 μM of the peptide or control peptide, together with Hoechst 33258, and 30 minutes later, the cells were imaged with a fluorescence microscope. Scale bar: 5 μm.

[6] = tested on: microtubules in HeLa cells; experiment: Living cell assay: tracing of microtubules; format: cell-based; conditions: 15 μM peptide, 30 minutes, Hoechst 33258, fluorescence microscope
Protocol: as §2

[7] = biological target: fluorescent tau-derived peptide (FITC-Ahx-(rR)3R2-GGG-KKVAVVR); experiment: MST; 1 μM of the fluorescent peptide constant, a series dilution of tubulin dimers; Monolith NT.115, hydrophobic capillaries

## KKVAVVRTPP
[1]; peptide with VxxVxxP motif
  microtubule binding (in words): able to bind microtubules

## N=C(N)c1ccc(-c2cc3ccc(C(=N)N)cc3[nH]2)cc1 [4',6‐diamidino‐2‐phenylindole (DAPI), 4',6‐diamidino‐2‐phenylindole]
[2]; due to the lack of specificity and the complexity of cellular contents
  tracing microtubules in living cells (in words): unable to trace microtubules in living cells

## tau‐derived peptide: FITC dye, cell‐penetrating peptide (rR)3R2, spacer (GGG), microtubule recognition unit (KKVAVVR), with aminohexanoic (Ahx) acid ({FITC-Ahx}-[dR]R[dR]R[dR]RRRGGGKKVAVVR)
[3]
  binding to tubulin dimers (in words): specifically bound to tubulin
[3]; listed as the peptide
  binding to tubulin dimers (in words): bound tubulin dimers in a dose‐dependent manner; also recorded: relatively low affinity
[3]; Monolith NT.115, hydrophobic capillaries
  disassociation constant (Kd) of the peptide with tubulin: 4.68 ± 0.08 µM
[4]; listed as modified heptapeptide from tau
  labeling of microtubules in solution / binding to microtubules (in words): binds microtubules specifically and noncovalently
[4]; listed as the peptide
  labeling of microtubules in solution / binding to microtubules (in words): able to successfully label the microtubules in solution
[5]
  entry into living cells (in words): delivered successfully into HeLa cells
[6]
  tracing of microtubule filaments in living cells (in words): no clear microtubule filaments were observed

## tubulin dimers purified from HeLa cells (from UniProt P68363 1-451; P07437 1-444) (complex)
[7]
  Kd: 4.68 µM

## COc1cc2c(c(OC)c1OC)-c1ccc(OC)c(=O)cc1[C@@H](NC(C)=O)CC2 [colchicine]
[2]
  labeling of microtubules in living cells (in words): able to label microtubules in living cells

## KKVAVVR
[1]; small sequence within the proline‐rich region of tau
  microtubule binding (in words): critical for efficient microtubule binding

## CC(=O)O[C@H]1C(=O)[C@@]2(C)[C@H]([C@H](OC(=O)c3ccccc3)[C@]3(O)C[C@H](OC(=O)[C@H](O)[C@@H](NC(=O)c4ccccc4)c4ccccc4)C(C)=C1C3(C)C)[C@]1(OC(C)=O)CO[C@@H]1C[C@@H]2O [taxol]
[2]
  labeling of microtubules in living cells (in words): able to label microtubules in living cells
